The target in experiment [1] is Nucleic Acid. Kind of experiment: Intrinsic association constant for DNA. Type of experiment: nucleic-acid assay, Bos taurus.
The test system of experiment [2] is Nucleic Acid. Kind of experiment: Melting temperature (Tm) of DNA in the presence of compound (5 uM). The conditions noted are these: Bos taurus. Type of experiment: functional.
Experiment [3] addresses Nucleic Acid. Kind of experiment: Apparent association constant for DNA. Type of experiment: nucleic-acid assay, Bos taurus.
For experiment [4], the system named is Nucleic Acid. The experiment can be described thus: Melting temperature (Tm) of DNA in the absence of the compound. Type of experiment: functional. The following applies: Bos taurus.
Experiment [5] is described as follows: Concentration of compound required for reduction of the fluorescence of ethidium bromide. Type of experiment: functional.

Results on three compounds are retold here after ChEMBL document CHEMBL1148229, “Synthesis of a novel intercalator based on 2,2'-binaphthalene bearing dimethylammonium groups” (Bioorg Med Chem Lett, 2004).

On to `CC[n+]1c(-c2ccccc2)c2cc(N)ccc2c2ccc(N)cc21.[Br-]` [HOMIDIUM BROMIDE], for which the Ki in experiment [1] amounted to 360000 M⁻¹.

In turn, `CNc1ccc2ccccc2c1` had a Ki in experiment [1] of 2200 M⁻¹.

With `CN(C)Cc1cccc2ccc(-c3ccc4cccc(CN(C)C)c4c3)cc12`, the Tm turned out to be 81.2 °C in experiment [2] and 75 °C in experiment [4]. The Ki was determined as 100000 M⁻¹ in experiment [3] and 800000 M⁻¹ in experiment [1]. This compound also came in with a C50 in experiment [5] of 7.2 µM.
